Experimental data as given in PMC10892984, “Novel Antineoplastic Inducers of Mitochondrial Apoptosis in Human Cancer Cells” (Molecules, 2024).

Tests used:
MALME-3M = details: 48 h
DU-145 cells = test: Cytochrome c assay (mitochondrial and cytosolic), ELISA; assay type: cell-based, human
Protocol: (§1) Cell numbers of 2 × 10^6 PC-3 and DU-145 cells were seeded into a […]. […] The protein content for each fraction was calculated to determine the mass content of cytochrome c in each fraction (pg cytochrome c/mg total protein). The mass content of cytochrome c (pg cytochrome c/mg total protein) was normalized towards the corresponding blank DMSO control and is given in percent (%) of blank DMSO control.

PC-3 cells = test: as above; assay type: cell-based, human; details: 25 µM
Protocol: as §1

[1] = Homo sapiens, 48 h, read-out: LC50

c1cc(CNC23CC4CC(CC(C4)C2)C3)cc(C[N+](Cc2cccc(CNC34CC5CC(CC(C5)C3)C4)c2)(Cc2cccc(CNC34CC5CC(CC(C5)C3)C4)c2)Cc2cccc(CNC34CC5CC(CC(C5)C3)C4)c2)c1 (centres unmarked) [Compound 1, tetrakis{3-[(tricyclo[3.3.1.1^3,7]decan-1-ammonio)methyl]benzyl}ammonium pentachloride]
GI50 (TK-10; Homo sapiens, TK-10, 48 h): 1.85 µM | CC50 (TK-10; Homo sapiens, TK-10, 48 h, read-out: LC50): 21.5 µM | TGI (TK-10; TK-10, renal cancer, mutant p53, 48 h): 7.17 µM | GI50 (IGROV1; Homo sapiens, IGROV-1, 48 h): 0.886 µM | CC50 (IGROV1; Homo sapiens, IGROV-1, 48 h, read-out: LC50): 8.65 µM | TGI (IGROV1; IGROV1, ovarian cancer, mutant p53, 48 h): 2.34 µM | GI50 (CCRF-CEM; Homo sapiens, 48 h): 1.46 µM | CC50 (CCRF-CEM; [1]): > 50 µM | TGI (CCRF-CEM; leukemia, mutant p53, 48 h): > 50 µM | GI50 (SF-268; Homo sapiens, SF-268, 48 h): 1.53 µM | CC50 (SF-268; Homo sapiens, SF-268, 48 h, read-out: LC50): 30.8 µM | TGI (SF-268; SF-268, CNS cancer (brain tumor), mutant p53, 48 h): 5.41 µM | GI50 (OVCAR-8; Homo sapiens, OVCAR-8, 48 h): 2.07 µM | CC50 (OVCAR-8; Homo sapiens, OVCAR-8, 48 h, read-out: LC50): 35.3 µM | TGI (OVCAR-8; OVCAR-8, ovarian cancer, mutant p53, 48 h): 8.48 µM | GI50 (LOX IMVI; Homo sapiens, 48 h): 0.505 µM | CC50 (LOX IMVI; [1]): 3.18 µM | TGI (LOX IMVI; melanoma, wild-type p53, 48 h): 1.27 µM | TGI (HT29; HT29, colon cancer, mutant p53, 48 h): 2.82 µM | GI50 (HT29; Homo sapiens, HT-29, 48 h): 0.857 µM | CC50 (HT29; Homo sapiens, HT-29, 48 h, read-out: LC50): 14.6 µM | TGI (786-0; 786-0, renal cancer, mutant p53, 48 h): 1.85 µM | GI50 (786-0; Homo sapiens, 786-0, 48 h): 0.848 µM | CC50 (786-0; Homo sapiens, 786-0, 48 h, read-out: LC50): 4.05 µM | GI50 (UACC-62; Homo sapiens, UACC-62, 48 h): 1.16 µM | CC50 (UACC-62; Homo sapiens, UACC-62, 48 h, read-out: LC50): 14.2 µM | TGI (UACC-62; UACC-62, melanoma, wild-type p53, 48 h): 3.68 µM | GI50 (SNB-75; Homo sapiens, SNB-75, 48 h): 2.34 µM | CC50 (SNB-75; Homo sapiens, SNB-75, 48 h, read-out: LC50): 27.9 µM | TGI (SNB-75; SNB-75, CNS cancer (brain tumor), mutant p53, 48 h): 9.73 µM | GI50 (UACC-257; Homo sapiens, UACC-257, 48 h): 3.08 µM | CC50 (UACC-257; Homo sapiens, UACC-257, 48 h, read-out: LC50): 29.4 µM | TGI (UACC-257; UACC-257, melanoma, wild-type p53, 48 h): 10.8 µM | GI50 (SN12C; Homo sapiens, 48 h): 1.41 µM | CC50 (SN12C; [1]): 15.8 µM | TGI (SN12C; renal cancer, mutant p53, 48 h): 4.43 µM | GI50 (SF-295; Homo sapiens, SF-295, 48 h): 3.05 µM | CC50 (SF-295; Homo sapiens, SF-295, 48 h, read-out: LC50): 28.2 µM | TGI (SF-295; SF-295, CNS cancer (brain tumor), mutant p53, 48 h): 10.4 µM | GI50 (RPMI-8226; Homo sapiens, RPMI-8226, 48 h): 1.32 µM | CC50 (RPMI-8226; Homo sapiens, RPMI-8226, 48 h, read-out: LC50): > 50 µM | TGI (RPMI-8226; RPMI-8226, leukemia, mutant p53, 48 h): 3.99 µM | GI50 (MALME-3M; Homo sapiens, Malme-3M): 0.839 µM | CC50 (MALME-3M; Homo sapiens, Malme-3M, read-out: LC50): 4.12 µM | TGI (MALME-3M; MALME-3M, melanoma, wild-type p53): 1.86 µM | toxicity for the cell line (DU-145 cells; 25 µM, 50 µM and 75 µM, 48 h post-treatment): highly toxic | cell death with depletion of cytosolic cytochrome c (DU-145 cells; 25.0 µM, 48 h): induced complete cell death | concentration at which cytochrome c translocation from mitochondria into the cytosol was readily induced (DU-145 cells; 48 h, tested 500 nM, 1 µM, 5 µM, 25 µM): 5.0 µM | toxicity for the cell line (PC-3 cells; 50 µM and 75 µM, 48 h post-treatment): highly toxic | concentration at which cytochrome c translocation from mitochondria into the cytosol was readily induced (PC-3 cells; 48 h, tested 500 nM, 1 µM, 5 µM): 25.0 µM | GI50 (NCI-H23; Homo sapiens, NCI-H23, 48 h): 1.53 µM | CC50 (NCI-H23; Homo sapiens, NCI-H23, 48 h, read-out: LC50): 28.2 µM | TGI (NCI-H23; NCI-H23, non-small-cell lung cancer, mutant p53, 48 h): 6.36 µM | GI50 (MDA-MB-468; Homo sapiens, MDA-MB-468, 48 h): 0.797 µM | CC50 (MDA-MB-468; Homo sapiens, MDA-MB-468, 48 h, read-out: LC50): 3.55 µM | TGI (MDA-MB-468; MDA-MB-468, breast cancer, mutant p53, 48 h): 1.68 µM | GI50 (MOLT-4; Homo sapiens, MOLT-4, 48 h): 1.32 µM | CC50 (MOLT-4; Homo sapiens, MOLT-4, 48 h, read-out: LC50): > 50 µM | TGI (MOLT-4; MOLT-4, leukemia, mutant p53, 48 h): 4.09 µM | GI50 (MDA-MB-435; Homo sapiens, MDA-MB-435, 48 h): 0.825 µM | CC50 (MDA-MB-435; Homo sapiens, MDA-MB-435, 48 h, read-out: LC50): 6.5 µM | TGI (MDA-MB-435; MDA-MB-435, melanoma, mutant p53, 48 h): 2.11 µM | GI50 (MCF7; Homo sapiens, MCF7, 48 h): 1.07 µM | CC50 (MCF7; Homo sapiens, MCF7, 48 h, read-out: LC50): 45.8 µM | TGI (MCF7; MCF7, breast cancer, wild-type p53, 48 h): 6.19 µM | GI50 (SK-MEL-2; Homo sapiens, SK-MEL-2, 48 h): 1.06 µM | CC50 (SK-MEL-2; Homo sapiens, SK-MEL-2, 48 h, read-out: LC50): 15.6 µM | TGI (SK-MEL-2; SK-MEL-2, melanoma, mutant p53, 48 h): 3.20 µM | TGI (HOP-62; HOP-62, non-small-cell lung cancer, mutant p53, 48 h): 10.1 µM | GI50 (HOP-62; Homo sapiens, HOP-62, 48 h): 2.66 µM | CC50 (HOP-62; Homo sapiens, HOP-62, 48 h, read-out: LC50): 29.7 µM | GI50 (NCI-H522; Homo sapiens, NCI-H522, 48 h): 0.731 µM | CC50 (NCI-H522; Homo sapiens, NCI-H522, 48 h, read-out: LC50): 3.3 µM | TGI (NCI-H522; NCI-H522, non-small-cell lung cancer, mutant p53, 48 h): 1.55 µM | TGI (HCT-15; HCT-15, colon cancer, mutant p53, 48 h): 3.91 µM | GI50 (HCT-15; Homo sapiens, HCT-15, 48 h): 1.1 µM | CC50 (HCT-15; Homo sapiens, HCT-15, 48 h, read-out: LC50): 18.4 µM
